Values quoted from earlier work, collected in patent publication US20120208745A1, “TREATMENT OF HIV” (priority 2006, published 2012).
Read-outs that look alike come from different tables or passages of the source.

Legend:
TNF-α [1] = conditions: whole blood of HIV patients stimulated with LPS; concentration-dependent
IL-1 = conditions: whole blood of HIV patients stimulated with LPS; concentration-dependent
IL-1β = conditions: normal PBMC, induced by HIV envelope glycoprotein gp 120
TNF-α [2] = conditions: normal PBMC, induced by HIV envelope glycoprotein gp 120

Substance | production of TNF-α (TNF-α [1]) | production of IL-1 (IL-1) | production of IL-1β (IL-1β) | production of TNF-α (TNF-α [2])
ACTH (1-24): Melanocortin peptide, fragment 1-24 of adrenocorticotropic hormone (SYSMEHFRWGKPVGKKRRPVKVYP; Corticotropin; UniProt P01189 138-161, looked up, fragment) | reduced | reduced |  | 
adrenocorticotropic hormone [ACTH (1-39)] (SYSMEHFRWGKPVGKKRRPVKVYPNGAEDESAEAFPLEF; Corticotropin; UniProt P01189 138-176, looked up) [Proopiomelanocortin-derived melanocortin peptide] | reduced | reduced |  | 
α-melanocyte-stimulating hormone [α-MSH (1-13), α-melanocyte-stimulating hormone [α-MSH (1-13)]] | reduced | reduced | inhibit | inhibit
